Reference: publication PMC6990966, “Treatment of Porphyromonas gulae infection and downstream pathology in the aged dog by lysine‐gingipain inhibitor COR388” (Pharmacology Research & Perspectives, 2020)
Where two headings read alike, the source gives them in different places.

Key:
P. gulae = test: qPCR detection of P. gulae load in oral samples of naturally infected aged dogs; assay type: in vivo, Beagle dogs
Experimental: (§1) Aged Beagle dogs of both sexes ranging from 8 to 15 years of age, in generally good health and located in the Vivocore Inc dog colony, were utilized in this study. All procedures were reviewed and approved by Vivocore's Institutional Animal Care and Use Committee (IACUC) and were performed in accordance with the principles of the Animal for Research Act of Ontario and the guidelines of Canadian Council on Animal Care (CCAC). Structure‐based design was used to develop a library of gingipain inhibitors, which were tested on purified Kgp and RgpB to assess potency and determine inhibition constants. […] In the first study, four dogs were dosed 10 mg kg^−1 q.d. with endpoints assessed after dosing and compared to those taken pre‐dose in individual dogs. […]
Biofluids were evaluated for P. gulae load using a qPCR assay that was developed to specifically detect P. gulae 16S gene with the following primers and probe: Forward primer […], Reverse primer […], and probe […]. […] Saliva was evaluated with either 2 μL neat saliva or purified DNA from 2 μL saliva. Buccal cells were evaluated with either 2 μL neat buccal cell slurry or purified DNA from 2 μL buccal cell slurry. SGP was evaluated with 2 μL from the elution in B‐Per. GCF was evaluated with either purified DNA from 50 μL of B‐Per eluted GCF or neat 2 μL elution.

[1] = Plasma pharmacokinetics after single intravenous dose; assay type: in vivo, Beagle dogs; conditions: both sexes, Beagle, dog, single intravenous dose 1 mg kg^−1 in PBS, mean ± SD
P. gingivalis cultures = P. gingivalis cultures in vitro; cited from earlier work
[2] = design: method as in PMID 30746447; conditions: mice; cited from earlier work
[3] = tested on: periodontal disease (pocket depth); test: Dental assessment of gingival pocket depth; assay type: in vivo, Beagle dogs; conditions: oral 0.5 mg kg^−1 b.i.d., day 90 vs baseline
Experimental: Aged Beagle dogs of both sexes ranging from 8 to 15 years of age, in generally good health and located in the Vivocore Inc dog colony, were utilized in this study. All procedures were reviewed and approved by Vivocore's Institutional Animal Care and Use Committee (IACUC) and were performed in accordance with the principles of the Animal for Research Act of Ontario and the guidelines of Canadian Council on Animal Care (CCAC). Structure‐based design was used to develop a library of gingipain inhibitors, which were tested on purified Kgp and RgpB to assess potency and determine inhibition constants. The detailed chemical synthesis and structure of compounds in the relevant series of lysine‐gingipain inhibitors including COR388 can be found in PCT/2016/0061197. Detailed characterization of COR388 enzyme target binding, potency, and selectivity are previously described.1 Test article administered, COR388 HCl, was a solid powdered material. Dogs were dosed with neat compound hand‐filled in gelatin capsules (size 1, Torpac) orally at the listed doses (free‐base, corrected for salt form). All dogs utilized in studies were positive on previous BANA enzyme (BANAMet LLC, Ann Arbor, MI) testing of oral plaque samples (assay described below). In the first study, four dogs were dosed 10 mg kg^−1 q.d. with endpoints assessed after dosing and compared to those taken pre‐dose in individual dogs. […]

[4] = Plasma pharmacokinetics after oral administration in gelatin capsules; assay type: in vivo, Beagle dogs; conditions: Beagle, dog; for bioavailability: po, 0.5 mg/kg
Experimental: Aged Beagle dogs of both sexes ranging from 8 to 15 years of age, in generally good health and located in the Vivocore Inc dog colony, were utilized in this study. All procedures were reviewed and approved by Vivocore's Institutional Animal Care and Use Committee (IACUC) and were performed in accordance with the principles of the Animal for Research Act of Ontario and the guidelines of Canadian Council on Animal Care (CCAC). […] The detailed chemical synthesis and structure of compounds in the relevant series of lysine-gingipain inhibitors including COR388 can be found in PCT/2016/0061197. Detailed characterization of COR388 enzyme target binding, potency, and selectivity are previously described.1 Test article administered, COR388 HCl, was a solid powdered material. Dogs were dosed with neat compound hand-filled in gelatin capsules (size 1, Torpac) orally at the listed doses (free-base, corrected for salt form). All dogs utilized in studies were positive on previous BANA enzyme (BANAMet LLC, Ann Arbor, MI) testing of oral plaque samples (assay described below). In the first study, four dogs were dosed 10 mg kg^-1 q.d. with endpoints assessed after dosing and compared to those taken pre-dose in individual dogs. The second dose-response study was conducted with a randomized, blinded, matched-group design with 12 dogs. […] Groups were balanced for age, sex, weight, and baseline BANA test results to the extent possible. Dogs were group housed according to dosing group in compliance with the recommendations of the CACC. Dogs were fed a standard commercial dry diet daily in the evenings with water provided ad libitum but not within 30 minutes of the start of anesthetic procedures. For evaluation of pharmacokinetics parameters, approximately 2 mL of blood was collected at the indicated time points following test article administration into K2EDTA tubes and plasma was isolated for bioanalytical determination of plasma concentrations of COR388. A single intravenous dose of COR388 was administered in PBS at a dose of 1 mg kg^-1. Quantitation of COR388 in plasma samples following protein precipitation with mianserin added as an internal standard, was performed from the time points shown using a qualified LC-MS/MS method (AB Sciex 4000 QTrap). Plasma concentration versus time profiles were analyzed to determine pharmacokinetic parameters using noncompartmental methods (Phoenix® WinNonlin® 6.3, Pharsight Certara).

Kgp = Kgp activity in GCF of dosed dogs using COR553 activity-based probe; assay type: in vivo, Beagle dogs
Experimental: Aged Beagle dogs of both sexes ranging from 8 to 15 years of age, in generally good health and located in the Vivocore Inc dog colony, were utilized in this study. All procedures were reviewed and approved by Vivocore's Institutional Animal Care and Use Committee (IACUC) and were performed in accordance with the principles of the Animal for Research Act of Ontario and the guidelines of Canadian Council on Animal Care (CCAC). Structure‐based design was used to develop a library of gingipain inhibitors, which were tested on purified Kgp and RgpB to assess potency and determine inhibition constants. The detailed chemical synthesis and structure of compounds in the relevant series of lysine‐gingipain inhibitors including COR388 can be found in PCT/2016/0061197. Detailed characterization of COR388 enzyme target binding, potency, and selectivity are previously described.1 Test article administered, COR388 HCl, was a solid powdered material. Dogs were dosed with neat compound hand‐filled in gelatin capsules (size 1, Torpac) orally at the listed doses (free‐base, corrected for salt form). All dogs utilized in studies were positive on previous BANA enzyme (BANAMet LLC, Ann Arbor, MI) testing of oral plaque samples (assay described below). In the first study, four dogs were dosed 10 mg kg^−1 q.d. with endpoints assessed after dosing and compared to those taken pre‐dose in individual dogs. The second dose‐response study was conducted with a randomized, blinded, matched‐group design with 12 dogs. Following baseline sample collections prior to dosing, animals were allocated to four dosing groups, n = 3 dogs per group as follows: vehicle (empty capsule), 0.15, 0.5, and 1.5 mg kg^−1 b.i.d (Q12h). Dosing continued for 28 days (0.15 and 1.5 mg kg^−1) or 90 days (vehicle and 0.5 mg kg^−1). Groups were balanced for age, sex, weight, and baseline BANA test results to the extent possible. Dogs were group housed according to dosing group in compliance with the recommendations of the CACC. Dogs were fed a standard commercial dry diet daily in the evenings with water provided ad libitum but not within 30 minutes of the start of anesthetic procedures.
Gingival Crevicular Fluid: GCF was collected from the gingival pockets at times following dosing ±30 minutes, as indicated. Eight sampling sites were identified per dog and four sites were used per timepoint. Sampling sites were isolated with a cotton roll and air‐dried. Gingival fluid collection strips (Periopaper™, Oraflow) were gently held with tweezers and placed into the pocket until resistance was felt. Strips were held in place for 30 seconds and then processed as described above for SGP isolation. […]

RgpB = test: Rgp enzyme activity assay in SGP of dosed dogs; assay type: in vivo, Beagle dogs; conditions: oral 10 mg kg^−1 q.d. for 28 days
Experimental: as §1, with “constants. The detailed chemical synthesis and structure of compounds in the relevant series of lysine‐gingipain inhibitors including COR388 can be found in PCT/2016/0061197.” for “constants.”
For the detection of arginine‐gingipain (Rgp) activity, cysteine‐HCl was freshly added to RgpB buffer (100 mmol L^−1 Tris, 200 mmol L^−1 gly‐gly, 5 mmol L^−1 CaCl2) to a final concentration of 10 mmol L^−1 to produce a RgpB working enzyme assay buffer. […] After 50 μL of substrate solution was added, the plate was immediately read at 405 nm for 1 hour with interval of every 1.5 minutes read at 37°C and continuous shaking in Biotek Synergy 2 microplate reader. […]

For `NCCCC[C@H](NC(=O)C1CCCC1)C(=O)COc1c(F)ccc(F)c1F` [COR388], the “mean decrease in baseline P. gulae DNA” value (P. gulae; buccal cells, oral 10 mg kg^−1 once a day, after 14 days of dosing) was over 80%, the “P. gulae bacterial load over time compared to vehicle control” value (P. gulae; oral 0.5 mg kg^−1 b.i.d. for 90 days, buccal cells (Figure 5A)) was “statistically significant reduction” and the half-life ([1]; read-out: elimination half-life (converted)) was 3.5 ± 0.6 h. For the same compound, the clearance ([1]; read-out: systemic clearance (CLS) (converted)) was 35 mL/min/kg, the Vd ([1]; read-out: volume distribution (Vss)) was 5.2 ± 1.3 L/kg and the “drug resistance on chronic administration” value (P. gingivalis cultures) was “did not lead to drug resistance”. The brain penetration [2] was “brain penetrant”, the “mean average pocket depth, all individual pockets” value ([3]; P = .0156) was “reduction” and the “mean average pocket depth, pockets ≥3 mm at baseline or end of study, per dog” value ([3]; P = .0332) was “significant reduction”. For the same compound, the Cmax ([4]; oral 0.15 mg kg^−1 b.i.d. group, single dog with minimal Kgp inhibition, read-out: plasma Cmax of the one dog with lowest exposure) was 2.73 ng/mL, the Tmax ([4]; both sexes, 0.5 mg kg^-1 oral, single oral dose (Figure 2C), mean ± SD) was 2.17 ± 1.76 h and the half-life ([4]; both sexes, 0.5 mg kg^-1 oral, single oral dose (Figure 2C), mean ± SD, read-out: Apparent t1/2 (converted)) was 2.42 ± 0.236 h. The concentration at 12 h ([4]; both sexes, 12 hours after oral dosing of 0.5 mg kg^−1, read-out: mean trough plasma concentration (Cmin)) was 2.67 ng/mL, the Cmax ([4]; both sexes, oral 0.15 mg kg^−1 b.i.d. group, read-out: mean Cmax in dose group) was 9.74 ng/mL and the AUC(0-t) ([4]; both sexes, oral 0.5 mg kg^−1 administered b.i.d. for 6 days, read-out: AUC0-12 h) was 265 ng·h/mL. The Cmax ([4]; both sexes, oral 0.5 mg kg^−1 administered b.i.d. for 6 days, read-out: Cmax) was 66.6 ng/mL, the bioavailability ([4]; both sexes, 0.5 mg kg^-1 oral, single oral dose (Figure 2C), mean ± SD, read-out: F) was 105 ± 28.8% and the bioavailability ([4]; both sexes, oral doses of 0.5 mg kg^−1 and higher, read-out: bioavailability (%F)) was 100%. The “inhibition of baseline Kgp activity” value (Kgp; oral 0.5 mg kg^−1, after a single dose) was “roughly 50%”, the “Kgp activity compared to vehicle control” value (Kgp; oral 0.5 mg kg^−1 b.i.d. for 90 days) was “statistically significant reduction” and the “inhibition of baseline Kgp activity” value (Kgp; oral 0.5 mg kg^−1 b.i.d., after 28 days of dosing) was “near complete inhibition”. For the same compound, the “active Kgp available for COR553 probe binding” value (Kgp; oral 10 mg kg^−1 q.d., 2 hours after dosing on days 14 and 28) was “no active sites were available for probe binding” and the “active RgpB in SGP versus baseline day 1” value (RgpB) was “reduction”.
